Data on one molecule can be found in patent US11491132B2, “Methods for treating thrombocytopenia” (Enzychem Lifesciences Corporation, priority 2014, dated 2022).

One series has as its system HepG2 cells. Kind of series: WST-1 cell viability assay in HepG2 cells. The format is cell-based. Conditions: PLAG 1 to 100 μg/ml. The procedure: The incubated HepG2 cell lines are treated with PLAG (1˜100 μg/ml), followed by IL-4 and TNF-α, reacted for 1 hour, incubated for 18 hours at 37° C. and the supernatant isolated. Quantitation of the amount of C3 in the cellular culture medium (supernatant) from HepG2 cells is performed by ELISA using a commercially available monoclonal antibody (mAb, R&D Systems) and the manufacture's protocol; the results are presented in FIG. 3. C3 is expressed spontaneously under in vitro culture condition using 10% FCS added to HepG2 cells incubated for 12 hr. The cells are treated with different doses of PLAG from 1 to 100 μg/ml (Panel A, Panel B) or 10 and 100 μg/ml of S6I (Panel C), reacted with IL-4 and TNF-α for 1 hr and then incubated for 18 hr at 37° C. Cellular viability is confirmed using the WST-1 assay (Panel A).
(In general: Formazan colour is commonly taken as a measure of viable cells.)

For a further series, the target named is T1, STAT6 (Homo sapiens, UniProt P42226).
T1 sequence (P42226 1-847): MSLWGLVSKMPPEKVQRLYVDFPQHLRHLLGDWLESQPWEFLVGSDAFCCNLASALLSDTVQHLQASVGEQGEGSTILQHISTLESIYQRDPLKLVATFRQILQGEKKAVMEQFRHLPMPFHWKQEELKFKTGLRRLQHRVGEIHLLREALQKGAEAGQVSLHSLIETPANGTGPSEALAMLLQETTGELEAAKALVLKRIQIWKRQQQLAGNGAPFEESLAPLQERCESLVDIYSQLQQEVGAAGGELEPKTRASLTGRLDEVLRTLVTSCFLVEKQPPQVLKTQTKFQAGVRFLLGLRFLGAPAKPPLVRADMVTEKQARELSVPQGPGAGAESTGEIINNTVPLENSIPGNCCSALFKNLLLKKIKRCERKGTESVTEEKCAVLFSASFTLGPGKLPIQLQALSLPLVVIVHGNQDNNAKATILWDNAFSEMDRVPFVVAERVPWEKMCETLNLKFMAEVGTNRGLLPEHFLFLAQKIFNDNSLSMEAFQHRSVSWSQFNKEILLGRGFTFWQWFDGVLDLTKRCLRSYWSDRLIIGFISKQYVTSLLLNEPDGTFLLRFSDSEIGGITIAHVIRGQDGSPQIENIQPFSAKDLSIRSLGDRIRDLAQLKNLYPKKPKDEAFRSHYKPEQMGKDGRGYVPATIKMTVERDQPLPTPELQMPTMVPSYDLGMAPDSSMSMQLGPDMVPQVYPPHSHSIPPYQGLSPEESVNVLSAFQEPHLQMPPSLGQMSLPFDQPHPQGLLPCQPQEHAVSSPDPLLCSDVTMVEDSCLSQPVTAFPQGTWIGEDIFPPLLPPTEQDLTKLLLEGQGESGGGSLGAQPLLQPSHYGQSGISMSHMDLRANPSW
Kind of series: Dephosphorylation of STAT6 in PLAG treated cells, western blot. Further details: endogenous in cells; host or cells: U937, A549, Jurkat. The format is cell-based. The note with it: U937, Jurkat and A549 cells; PLAG 0.01 to 10 μg/ml; 15 min after 10 ng/ml IL-4. The method, then:
Dephosphorylation of STAT6 is examined using anti-phosphorylated STAT6 in U937, A549, and Jurkat cell lysates treated with PLAG concentration from 0.01 to 10 μg/ml. Phosphorylation of STAT6 is induced by treatment with 10 ng/ml of IL-4. Dephosphorylation of STAT1 is examined in the U937 cell lysate treated with PLAG (0.01 to 10 μg/ml). Phosphorylation of STAT1 is induced by 10 ng of IFN-γ treatment. Dephosphorylation of STAT1 and STAT6 is examined at 15 min after stimulation with IFN-γ and IL-4 respectively, in the PLAG pretreated cells. […] The transcriptional activity of STAT6 is decreased by the dephosphorylation of STAT6. […] No effect of PLAG on STAT1 phosphorylation is observed.
(In general: A western blot detects proteins with antibodies after separation by electrophoresis.)

Series [1] has as its system platelets and neutrophils. Put plainly: Pilot study: thrombocytopenia and neutropenia in pancreatic cancer patients receiving chemotherapy. Type of series: in vivo, human. The note with it: 16 patients. The procedure: PLAG is administered to sixteen pancreatic cancer patients after chemotherapy. The subjects of this study are unoperable pancreatic cancer patients with ECOG (Eastern Cooperative Oncology Group) performance status of “0” or “1”, i.e. patients in good physical condition without much pain, able to enjoy almost normal lifestyle and thus, eligible for anticancer treatment for at least 2 months. The pancreatic cancer patients are “locally advanced” patients having tumor metastasis to the major vessels around pancreas or “Distant metastasis” patients with distant metastasis to liver, lung, bone, etc. ECOG performance status “0” refers to a patient who is asymptomatic, fully active, able to carry on all predisease activities without restriction with no pain and no problem for normal lifestyle, while “1” refers to a patient who is symptomatic but completely ambulatory with mile pain and a little problem for normal life. Anticancer (Gemcitabine and Erlotinib combo treatment) Regimen is as follows: 1,000 mg of Gemcitabine is injected once a week for three weeks (Day 1, Day 8, Day 15), and is not injected in the next one week (Day 22). Therefore, 1 cycle of anticancer treatment requires 1 month. 100 mg of Erlotinib (Tarceva) is administered once per day everyday orally. 1,000 mg of PLAG is also administered once per day orally, starting from 3 days before anticancer treatment until the last chemotherapy treatment. The PLAG treatment group and control group both completed two cycles of anticancer treatment. There is no difference among the control and PALG treatment groups in the amount or schedule of anticancer treatment.

Setting [2] is: Gemcitabine and Erlotinib, PLAG 1,000 mg once per day orally, two cycles.

For `CCCCC/C=C\C/C=C\CCCCCCCC(=O)OC(COC(C)=O)COC(=O)CCCCCCCCCCCCCCC` (racemic) [PLAG, 1-palmitoyl-2-linoleoyl-3-acetylglycerol], the “cellular viability (WST-1)” value in the series on HepG2 cells was “does not affect the cellular propagation and death”. In addition, the “IL-4 treatment induced STAT6 phosphorylation” value on STAT6 is on record as “inhibited with increasing PLAG concentrations”. In series [1] (setting [2]), the “patients whose platelet number dropped to less than 25,000/μl” value is “no patient” and the “patients with platelet number decrease to less than 50,000/μl” value is given as “no patient”. Besides, in series [1] (PLAG treatment group), the “patients with >70% decrease in platelet count” value is “none”; the “patients with neutrophil decrease to less than 500/μl” value is “none”; the “patients with neutrophil number decrease to less than 75%” value is “none and not one patient”.
